Several values for one entry are separate records, joined by “and”; a condition that tells them apart may be missing. Equal entries are not always repeated. ± gives the expanded uncertainty stated by the source.
Conditions: 303.15 K; Liquid; Closed cell (Static) method

| SMILES | vapor or sublimation pressure |
| --- | --- |
| CCOCCO [2-ethoxyethan-1-ol] | 0.981 ± 0.017 kPa and 0.984 ± 0.017 kPa and 0.968 ± 0.017 kPa |
| ClCCl [dichloromethane] | 70.49 ± 0.27 kPa |
| ClC(Cl)Cl [trichloromethane] | 32.41 ± 0.13 kPa |
| ClC(Cl)(Cl)Cl [tetrachloromethane] | 18.83 ± 0.083 kPa |
